Measurements reported in patent publication US7629130B2 (priority 2005, dated 2009).
Read-outs that look alike come from different tables or passages of the source.

Legend:
[1] = test system: Dictyostelium
[2] = test system: Legionella-containing vacuoles in calnexin-GFP-labeled Dictyostelium; assay type: cell-based, Dictyostelium discoideum
[3] = test system: Legionella-containing vacuoles in Dictyostelium; assay type: cell-based, Dictyostelium discoideum; details: 20 μM LY; 1 h infection; p<10^−9
[4] = test system: Dictyostelium; assay type: cell-based, Dictyostelium discoideum
[5] = test system: L. pneumophila
[6] = test system: L. pneumophila within Dictyostelium; assay type: cell-based, Legionella pneumophila; details: within 6-8 days; 10 μM LY (FIG. 2C); MOI 1
[7] = latrunculin B 1-50 μM, cytochalasin A 1-50 μM, cytochalasin D up to 50 μM, 1 h prior infection

## O=c1cc(N2CCOCC2)oc2c(-c3ccccc3)cccc12 [LY294002]
[1]
  viability of Dictyostelium (PFU): did not affect viability
  viability of Dictyostelium Ax3 in MB medium: as viable as untreated
  viability of Dictyostelium at later time points (PFU on K. pneumoniae lawns): reduced viability
[2]; 15 min post infection, 20 μM LY-treated wild-type Dictyostelium (untreated 25%)
  portion of spacious LCVs: less than 5%
[2]; within 2 h, 20 μM LY-treated wild-type Dictyostelium (untreated 40%)
  portion of spacious LCVs: 20%
[3]
  factor more SidC localized to LCV membranes compared to untreated wild-type Dictyostelium: ~1.5
[4]; wild-type Dictyostelium treated with PI3K inhibitor (FIG. 2A: 5 μM wortmannin)
  change in phagocytosis of wild-type L. pneumophila: −33%
[5]; wortmannin 0.1-10 μM, LY294002 5-25 μM, HL5 medium
  viability of L. pneumophila (CFU): did not affect viability
[6]
  factor more wild-type L. pneumophila released compared to wild-type Dictyostelium: ~100

## C=C1[C@@H](C)[C@H]2[C@H](Cc3ccccc3)NC(=O)[C@]23OC(=O)/C=C/C(=O)CCC[C@@H](C)C/C=C/[C@H]3[C@@H]1O [cytochalasin A]
[4]
  Icm/Dot-dependent phagocytosis: blocked
[4]; [7]
  inhibition of phagocytosis (uptake) of L. pneumophila: blocked phagocytosis in a dose-dependent manner

## C=C1[C@@H](C)[C@H]2[C@H](Cc3ccccc3)NC(=O)[C@]23[C@H](OC(C)=O)/C=C/[C@@](C)(O)C(=O)[C@@H](C)C/C=C/[C@H]3[C@@H]1O [cytochalasin D]
[4]; [7]
  inhibition of phagocytosis (uptake) of L. pneumophila: did not prevent uptake

## C/C1=C/C(=O)O[C@@H]2C[C@@H](CC[C@H](C)/C=C\CC1)O[C@@](O)([C@@H]1CSC(=O)N1)C2 [latrunculin B]
[4]
  Icm/Dot-dependent phagocytosis: blocked
  inhibition of phagocytosis (uptake) of L. pneumophila: blocked phagocytosis in a dose-dependent manner
  phagocytosis (FIG. 1): blocked

## COC[C@H]1OC(=O)c2coc3c2[C@@]1(C)C1=C(C3=O)[C@@H]2CCC(=O)[C@@]2(C)C[C@H]1OC(C)=O [wortmannin]
[1]
  viability of Dictyostelium (PFU): did not affect viability
  viability of Dictyostelium Ax3 in MB medium: as viable as untreated
[4]
  change in phagocytosis of wild-type L. pneumophila: −19%
[5]
  viability of L. pneumophila (CFU): did not affect viability
